ChEMBL document CHEMBL1201862, “PubChem BioAssay data set” (2004)
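All cell lines were grown in 96-well plates and treated with compound for 48 hours. Abbreviation: GI50, concentration required for 50% inhibition of growth.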 Activity calls are given as the source filed them. Cut-off read from the data, not from the text of the source: active = GI50 up to about 1.1 µM and inactive = higher.

Assays:
Experiment in all cases: inhibition of tumour cell growth, NCI panel, 48 h
786-0 = tested on: 786-0
ACHN = tested on: ACHN
CAKI-1 = tested on: CAKI-1
COLO 205 = tested on: COLO 205
EKVX = tested on: EKVX
HCT-116 = tested on: HCT-116
HL-60 = tested on: HL-60
KM12 = tested on: KM12
LXFL 529 = tested on: LXFL 529
MOLT-4 = tested on: MOLT-4
OVCAR-4 = tested on: OVCAR-4
OVCAR-5 = tested on: OVCAR-5
RPMI-8226 = tested on: RPMI-8226
SK-MEL-5 = tested on: SK-MEL-5
SR = tested on: SR
UO-31 = tested on: UO-31

Measured: GI50

COc1ccc(C2C(Cl)C(=O)N2NC(=O)Cc2ccccc2)cc1 (stereo not drawn)
inactive: 786-0 > 100 µM | ACHN > 100 µM | CAKI-1 > 100 µM | COLO 205 > 100 µM | EKVX > 100 µM | HCT-116 > 100 µM | HL-60 > 100 µM | KM12 > 100 µM | LXFL 529 > 100 µM | MOLT-4 > 100 µM | OVCAR-4 > 100 µM | OVCAR-5 > 100 µM | RPMI-8226 > 100 µM | SK-MEL-5 > 100 µM | SR > 100 µM | UO-31 > 100 µM

O=C1C=CC(=O)N1Nc1ccc([N+](=O)[O-])cc1[N+](=O)[O-]
inactive: 786-0 > 70.1 µM | ACHN > 100 µM | CAKI-1 > 47.9 µM | COLO 205 > 42.8 µM | EKVX > 100 µM | HCT-116 > 100 µM | HL-60 25.8 µM | KM12 > 100 µM | LXFL 529 > 44.5 µM | MOLT-4 33.3 µM | OVCAR-4 > 42.3 µM | OVCAR-5 > 100 µM | RPMI-8226 > 44.5 µM | SK-MEL-5 > 100 µM | SR > 38.5 µM | UO-31 > 100 µM

COc1cc(OC)cc(C(=O)Cc2c(C(=O)c3ccccc3)c3ccccc3n2C(=O)c2ccccc2)c1
inactive: 786-0 38.9 µM | ACHN 33 µM | CAKI-1 50.5 µM | COLO 205 28.6 µM | EKVX 55.2 µM | HCT-116 23.2 µM | HL-60 34.5 µM | KM12 33.7 µM | LXFL 529 9.95 µM | MOLT-4 9.4 µM | OVCAR-4 15.3 µM | OVCAR-5 > 100 µM | RPMI-8226 9.29 µM | SK-MEL-5 13.1 µM | SR 14.2 µM | UO-31 24.4 µM

COc1cc2c3c(c1OC)-c1c(ccc4c1OCO4)CC3(C#N)N(C(=O)c1ccccc1)CC2 (stereo not drawn)
inactive: 786-0 30.7 µM | CAKI-1 36.6 µM | COLO 205 > 100 µM | EKVX 74.1 µM | HCT-116 42.2 µM | HL-60 > 100 µM | KM12 > 100 µM | LXFL 529 73.8 µM | MOLT-4 > 100 µM | OVCAR-4 21 µM | OVCAR-5 > 100 µM | RPMI-8226 8.91 µM | SK-MEL-5 > 100 µM | SR > 100 µM | UO-31 99.8 µM

C1CCN(c2nsc(N3CCCCC3)n2)CC1
inactive: 786-0 > 100 µM | ACHN > 100 µM | CAKI-1 > 100 µM | EKVX > 100 µM | HCT-116 > 100 µM | HL-60 92 µM | KM12 > 100 µM | LXFL 529 > 100 µM | MOLT-4 > 100 µM | OVCAR-4 > 100 µM | OVCAR-5 > 100 µM | RPMI-8226 87.3 µM | SK-MEL-5 > 100 µM | SR > 100 µM | UO-31 > 100 µM

C[N+]1=c2c3cccc4cccc(c(=O)n2CC1)c43
inactive: 786-0 25.8 µM | ACHN 12.5 µM | CAKI-1 23.1 µM | COLO 205 10.1 µM | EKVX 29.4 µM | HCT-116 4.68 µM | HL-60 20.9 µM | KM12 18.3 µM | LXFL 529 13.9 µM | MOLT-4 3.37 µM | OVCAR-4 17.6 µM | OVCAR-5 15.5 µM | RPMI-8226 23.9 µM | SK-MEL-5 18.2 µM | SR 2.77 µM | UO-31 12.3 µM

CCOc1ccc(/N=N/c2c(-c3ccccc3)nn(C(=O)CC(=O)Nc3cccc(C)c3)c2-c2ccccc2)cc1
inactive: 786-0 > 100 µM | ACHN 38.5 µM | CAKI-1 > 100 µM | COLO 205 > 100 µM | EKVX 38.1 µM | HCT-116 58.5 µM | HL-60 > 100 µM | KM12 41.5 µM | LXFL 529 > 100 µM | MOLT-4 > 100 µM | OVCAR-4 > 100 µM | OVCAR-5 74.1 µM | RPMI-8226 65.8 µM | SK-MEL-5 90.2 µM | SR > 100 µM | UO-31 17.7 µM

COc1ccc(/C=C(\Cl)c2ccc(OC)cc2)cc1
inactive: 786-0 > 100 µM | ACHN > 100 µM | CAKI-1 > 100 µM | COLO 205 > 100 µM | EKVX > 100 µM | HCT-116 > 100 µM | HL-60 > 100 µM | KM12 > 100 µM | LXFL 529 > 100 µM | MOLT-4 > 100 µM | OVCAR-4 > 100 µM | OVCAR-5 > 100 µM | RPMI-8226 > 100 µM | SK-MEL-5 > 100 µM | SR > 100 µM | UO-31 > 100 µM

CC(C(=O)Oc1ccc2ccccc2c1-c1c(O)ccc2ccccc12)c1ccccc1 (stereo not drawn)
inactive: 786-0 14.8 µM | ACHN 13.7 µM | CAKI-1 11.5 µM | COLO 205 17.1 µM | EKVX 16.8 µM | HCT-116 12.9 µM | HL-60 13.2 µM | KM12 11.4 µM | LXFL 529 14.1 µM | MOLT-4 7.67 µM | OVCAR-4 10.9 µM | OVCAR-5 16.9 µM | RPMI-8226 15.3 µM | SK-MEL-5 13.7 µM | UO-31 1.37 µM

O=C(O)Cc1cc(=O)[nH]c2c1C(=O)CCC2
inactive: 786-0 > 100 µM | ACHN > 100 µM | COLO 205 > 100 µM | EKVX > 100 µM | HL-60 > 100 µM | KM12 > 100 µM | LXFL 529 > 100 µM | MOLT-4 > 100 µM | OVCAR-5 > 100 µM | RPMI-8226 > 100 µM | SK-MEL-5 > 100 µM | SR > 100 µM | UO-31 > 100 µM

CC(C)CN(CC(C)C)C(=O)C1CCCC[C@@H]1C(=O)O (stereo partly drawn)
inactive: 786-0 > 100 µM | ACHN > 100 µM | CAKI-1 > 100 µM | COLO 205 > 100 µM | EKVX > 100 µM | HCT-116 > 100 µM | HL-60 > 100 µM | KM12 > 100 µM | LXFL 529 > 100 µM | MOLT-4 > 100 µM | OVCAR-4 > 100 µM | OVCAR-5 > 10 µM | RPMI-8226 > 100 µM | SK-MEL-5 > 100 µM | SR > 100 µM | UO-31 > 100 µM

N#Cc1ccc(C2OCC3CC=CCC3CO2)cc1 (stereo not drawn)
inactive: 786-0 > 100 µM | ACHN 93.5 µM | CAKI-1 > 100 µM | COLO 205 80.9 µM | EKVX 31.2 µM | HCT-116 65.5 µM | HL-60 30.7 µM | KM12 61.4 µM | LXFL 529 47.1 µM | MOLT-4 2.97 µM | OVCAR-4 > 100 µM | OVCAR-5 71.9 µM | RPMI-8226 42.2 µM | SK-MEL-5 21.1 µM | SR 36.1 µM | UO-31 > 100 µM

O=C1C2=C(c3ccccc31)C(c1cccc(Cl)c1)NC(S)=N2 (stereo not drawn)
inactive: 786-0 > 100 µM | ACHN 68.1 µM | CAKI-1 75.2 µM | COLO 205 > 100 µM | EKVX > 100 µM | HCT-116 > 100 µM | HL-60 > 100 µM | KM12 45.9 µM | LXFL 529 > 100 µM | MOLT-4 91.8 µM | OVCAR-4 76.7 µM | OVCAR-5 > 100 µM | RPMI-8226 88.5 µM | SK-MEL-5 55.1 µM | UO-31 46.2 µM

C[P+](C)(C)C
inactive: 786-0 > 100 µM | ACHN > 100 µM | CAKI-1 > 100 µM | COLO 205 > 100 µM | EKVX > 100 µM | HCT-116 > 100 µM | HL-60 > 100 µM | KM12 > 100 µM | LXFL 529 > 100 µM | MOLT-4 > 100 µM | OVCAR-4 > 100 µM | OVCAR-5 > 100 µM | RPMI-8226 > 100 µM | SK-MEL-5 > 100 µM | SR > 100 µM | UO-31 > 100 µM

O=C(COc1ccc(Cl)cc1)N1N=C(c2ccc(Cl)cc2)CC1(O)c1ccccc1 (stereo not drawn)
inactive: 786-0 14.5 µM | ACHN 9.04 µM | CAKI-1 20.9 µM | COLO 205 21 µM | EKVX 30 µM | HCT-116 12.6 µM | HL-60 6.5 µM | KM12 14.2 µM | LXFL 529 15 µM | MOLT-4 4.95 µM | OVCAR-4 7.48 µM | OVCAR-5 21.7 µM | RPMI-8226 7.03 µM | SK-MEL-5 14.5 µM | SR 3.69 µM | UO-31 > 23.7 µM

CC(C)N(C(=O)C1(C)CC1)C(C)C
inactive: 786-0 > 100 µM | ACHN > 100 µM | CAKI-1 > 100 µM | COLO 205 > 100 µM | EKVX > 100 µM | HCT-116 > 100 µM | HL-60 > 100 µM | KM12 > 100 µM | LXFL 529 > 100 µM | MOLT-4 > 100 µM | OVCAR-4 > 100 µM | OVCAR-5 > 100 µM | RPMI-8226 > 100 µM | SK-MEL-5 > 100 µM | UO-31 > 100 µM

O=C(/C=C/c1cccc([N+](=O)[O-])c1)c1ccc([N+](=O)[O-])cc1
inactive: 786-0 > 100 µM | ACHN > 100 µM | CAKI-1 > 100 µM | COLO 205 > 100 µM | EKVX > 100 µM | HCT-116 > 100 µM | HL-60 > 100 µM | KM12 > 100 µM | LXFL 529 > 100 µM | MOLT-4 > 100 µM | OVCAR-4 > 100 µM | OVCAR-5 > 100 µM | SK-MEL-5 > 100 µM | SR > 100 µM | UO-31 > 100 µM
